Our source for the Kd and IC50 values is PMC11547576, “Identification of a New Promising BAG3 Modulator Featuring the Imidazopyridine Scaffold” (Molecules, 2024).

One experiment addresses T1, BAG3 full-length (Homo sapiens, UniProt O95817).
T1 construct: both the full-length BAG3 protein and its BAG domain; purchased Novus Biologicals (Littleton, CO, USA)
Put plainly: SPR assay on BAG3 full-length protein. As to conditions: Biacore T200, 0 to 100 µM, 25 °C, 1:1 interaction model, n.b. = no binding, read-out: BAG3 FULL KD (µM) ± SD. As for the experimental part:
(§1) In this study, we employed SPR experiments to evaluate the interactions between synthesized compounds (1–14) and both the full-length BAG3 protein and its BAG domain. Only the compounds that successfully bound to the full-length BAG3 protein were tested for their interaction with the BAG domain. Protein immobilization was achieved using the amide coupling method, and the compounds were tested at ten different concentrations, ranging from 0 to 100 µM. A known binder of BAG3-BD, LK4 ((Z)-ethyl 2-(5-(3,4-dihydroxybenzylidene)-2,4-dioxothiazolidin-3yl)acetate), was used as a positive control. […] Compound 14 also bound the target but with slightly higher KD values, still within the micromolar range. The three identified compounds were further investigated to understand whether this binding induced an effect on BAG3 protein functions. The KD values reported in Table 1 for the known inhibitor LK4 differ from those in previous studies due to the use of a newer-generation instrument for the SPR experiments. The earlier experiments utilized the Biacore 3000, whereas the current study employed the Biacore T200. While ligand binding was confirmed in both sets of experiments, the slightly different KD values are attributed to the enhanced sensitivity of the Biacore T200.
(§2) Recombinant human BAG3 protein (Bcl2-associated athanogene 3) was sourced from Novus Biologicals (Littleton, CO, USA), while the BAG3 domain (BAG3-BD) was procured from ARETA International S.r.l. (Gerenzano, Italy). We utilized (Z)-ethyl 2-(5-(3,4-dihydroxybenzylidene)-2,4-dioxothiazolidin-3-yl)acetate (LK4), a known BAG3 inhibitor previously identified by our group. Surface Plasmon Resonance (SPR) spectroscopy was employed to assess the affinity of synthesized molecules for BAG3 and BAG-BD using a Biacore T200 optical biosensor equipped with CM5 sensor chips (Cytiva, Marlborough, MA, USA). BAG3 and BAG-BD were immobilized on the CM5 sensor chip using standard amine-coupling protocols. BAG3 protein (0.067 μg/μL in 10 mM CH3COONa, pH 4.5) was immobilized at a flow rate of 10 μL/min, resulting in a density of 14 kRU. The BAG3 domain (0.38 μg/μL in 10 mM CH3COONa, pH 4.5) was immobilized under similar conditions, achieving a density of 4 kRU. For the experiments, BAG3 and BAG-BD surfaces, along with an unmodified reference surface, were prepared for simultaneous analyses.
Compounds 1–14 and LK4 were dissolved to 10 mM in 100% DMSO and then diluted 1:20 (v/v) in PBS-P buffer (0.2 M phosphate buffer, 27 mM KCl, 1.37 M NaCl, 0.5% surfactant P20) to achieve a final DMSO concentration of 5.0%. These compounds were injected in a concentration series (1:2 dilution, 10 different concentrations) ranging from 0 to 100 μM, prepared in 96-well plates. SPR experiments were conducted at 25 °C with a flow rate of 20 μL/min, featuring 90 s of association and 400 s of dissociation monitoring. Changes in mass, reflected as resonance units (RU), were recorded to determine binding responses. KD values were calculated using Biaevaluation software 3.2 by globally fitting the double-referenced association and dissociation data to a 1:1 interaction model. See Supplementary Materials for all the sensorgrams (Figures S43–S50).
Background: Surface plasmon resonance follows binding to a sensor surface in real time, without labels.

Another experiment concerns the target T2, BAG3-BD (Homo sapiens, UniProt O95817).
T2 construct: the BAG3 domain (BAG3-BD) was procured from ARETA International S.r.l; purchased ARETA International S.r.l; (Gerenzano, Italy)
T2 sequence (O95817 421-498 limits assumed): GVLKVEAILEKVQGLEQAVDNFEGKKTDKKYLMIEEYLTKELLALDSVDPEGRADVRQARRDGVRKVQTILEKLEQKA
Kind of experiment: SPR assay on BAG domain of BAG3 (BAG3-BD). As to conditions: Biacore T200, 0 to 100 µM, 25 °C, 1:1 interaction model, read-out: BAG DOMAIN KD (µM) ± SD. The format is binding. As to the method: as §1
as §2, with “For the experiments, BAG3 and BAG-BD surfaces, along with an unmodified reference surface, were prepared for simultaneous analyses.” left out
Compounds 1–14 and LK4 were dissolved to 10 mM in 100% DMSO and then diluted 1:20 (v/v) in PBS-P buffer (0.2 M phosphate buffer, 27 mM KCl, 1.37 M NaCl, 0.5% surfactant P20) to achieve a final DMSO concentration of 5.0%. […] Changes in mass, reflected as resonance units (RU), were recorded to determine binding responses. KD values were calculated using Biaevaluation software 3.2 by globally fitting the double-referenced association and dissociation data to a 1:1 interaction model. […]

In the next experiment the test system is HaCat cells. Kind of experiment: MTT cell viability assay on HaCat healthy cells. The format is cell-based. As to conditions: Homo sapiens, 72 h, seven concentrations (1 to 100 μM). As for the experimental part:
Elevated expression levels of BAG3 are strongly associated with signaling pathways in various types of malignant cells; consequently, reducing the activity of this co-chaperone inhibits cell proliferation, triggers apoptosis, and induces cell cycle arrest. To assess the activity of compounds 10, 12, and 14, cytotoxicity assays were performed on HeLa cells, which were chosen for their tendency to overexpress BAG3 proteins. MTT assays were conducted by exposing HeLa cells to different concentrations of the compounds (25, 50, and 100 µM) for 72 h. Additionally, 10% DMSO was used as a positive control, while 0.1% DMSO served as a negative control. […] The next step involved the assessment of the cytotoxicity of the most promising candidate, 10, on healthy cells to determine its safety profile. To achieve this, MTT assays were conducted on HaCat cells over 72 h. […]
Cell viability was assessed by measuring mitochondrial metabolic activity using a colorimetric assay, which involves the reduction of 3-[4,5-dimethylthiazol-2,5-diphenyl-2H-tetrazolium bromide (MTT) to purple formazan. […] Absorbance was measured at 570 nm using a Multiskan™ GO Microplate Spectrophotometer (Thermo Fisher Scientific, Waltham, MA, USA,). […]
In general terms: Tetrazolium assays rely on reduction of a dye to a coloured formazan, in cell work by metabolically active cells.

T1 sequence (O95817 whole entry, the tested form may be a part): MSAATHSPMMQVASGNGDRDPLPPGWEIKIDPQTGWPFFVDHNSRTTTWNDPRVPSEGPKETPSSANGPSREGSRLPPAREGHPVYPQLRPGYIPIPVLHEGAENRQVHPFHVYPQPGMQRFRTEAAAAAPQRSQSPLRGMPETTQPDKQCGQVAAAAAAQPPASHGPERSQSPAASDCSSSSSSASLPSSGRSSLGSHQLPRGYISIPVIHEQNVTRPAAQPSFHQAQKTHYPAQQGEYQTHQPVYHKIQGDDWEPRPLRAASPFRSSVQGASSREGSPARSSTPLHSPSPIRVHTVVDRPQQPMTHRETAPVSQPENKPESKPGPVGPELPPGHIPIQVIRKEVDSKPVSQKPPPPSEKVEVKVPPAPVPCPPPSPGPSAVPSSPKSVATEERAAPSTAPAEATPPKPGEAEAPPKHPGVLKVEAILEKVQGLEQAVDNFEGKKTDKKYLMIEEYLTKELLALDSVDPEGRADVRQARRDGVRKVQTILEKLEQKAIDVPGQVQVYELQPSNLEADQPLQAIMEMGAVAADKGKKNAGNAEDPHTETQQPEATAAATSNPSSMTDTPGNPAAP

Regarding `CC(C)Nc1c(-c2ccccc2Br)nc2ccc(Cl)cn12` [Compound 10, 2-(2-bromophenyl)-6-chloro-N-isopropylimidazo[1,2-a]pyridin-3-amine], the values for the Kd on BAG3 full-length and at BAG3-BD were 33.5 ± 0.21 µM and 15.7 ± 1.44 µM, respectively. In addition, in the experiment on HaCat cells, half-maximal inhibition (IC50) required 81.3 ± 4.83 µM.

By Kd is commonly meant a measure of binding affinity in units of concentration. By IC50 is commonly meant the concentration that inhibits the measured activity by half.
